These results are taken from patent US7423060B2, “Thiophene hydroxamic acid derivatives and their use as HDAC inhibitors” (Hoffman-La Roche Inc., priority 2004, dated 2008).

As usually defined, the IC90 is the point of the concentration-response curve where the effect stands at 90%.

The test system of the test is HT-29 cells. As to the kind of experiment: MTT assay on HT-29 human colon carcinoma cell line. The following applies: MTT assay after 5 days, compounds 30 μM to 1.5 nM, read-out: IC90 HT29. Type of test: cell-based. On the procedure:
To show the activity of the compounds according to this invention, their effects on a human colon carcinoma cell line was evaluated using a standard MTT-assay. MTT (3-(4,5-dimethylthiazol-2-yl)-2,5-diphenyl tetrazolium bromide) is widely used for the quantitative determination of cytotoxic effects or in vitro chemosensitivity of tumor cells. The assay is based on the cleavage of the yellow tetrazolium salt (MTT) to purple formazan crystals by metabolic active cells. For details, see Rubinstein, L. V., et al., J. Natl. Cancer Inst. 82 (1990) 1113-1118.
We proceeded as follows: HT-29 cells (human colon carcinoma cell line, ATCC-No. HTB-38) were cultivated in RPMI 1640 medium with GlutaMAX™ I (Invitrogen, Cat-No. 61870-010), 2.5% fetal calf serum (FCS, Sigma Cat-No. F4135 (FBS)), 2 mM glutamine, 100 units/ml penicillin, 100 μg/ml streptomycin (=Pen/Strep from Invitrogen Cat. No. 15140). For the assay the cells were seeded in 384 well plates, 900 cells per well, in the same medium. At the next day, the compounds (dissolved 10 mM in DMSO) were added in various concentrations ranging from 30 μM to 1.5 nM. After 5 days, the MTT assay was done mainly according to the instructions of the manufacturer (Cell proliferation kit I, MTT, from Roche Molecular Biochemicals). […] After careful mixing, the plates were measured in Victor 2 (scanning multiweil spectrophotometer, Wallac) at 550 nm. […]
On the technique in general: Tetrazolium dyes change colour on reduction, which living cells bring about.

As for `CC(NC(=O)c1ccc(C(=O)NO)s1)c1ccc(OCc2ccc(OC(F)(F)F)cc2)cc1` (stereo not shown) [Example 1-1, Thiophene-2,5-dicarboxylic acid 2-hydroxyamide 5-({1-[4-(4-trifluoromethoxy-benzyloxy)-phenyl]-ethyl}-amide)], the IC90 worked out at 690 nM.
